Reference: patent US20040260071A1, “Benzophene-linked crf and crf-like peptides for covalent labeling of corticotropin-releasing factor crf binding protein” (priority 2001, published 2004)
“And” between values parts separate entries of the source, which are not always exact repeats. Equal values may be shown once. One block for each molecule: values may come before it. Non-standard residues stand in square brackets, D forms with d. Residues, ends and D or L forms follow the SMILES beside them. No end group written: not given here. *: point of attachment. Benzoyl(4-benzoyl) = O=C(c1ccccc1)c1ccc(C(=O)*)cc1; Bpa = N[C@@H](Cc1ccc(C(=O)c2ccccc2)cc1)C(=O)O

What was measured:
rCRFBP [1] = target: T1, rCRFBP (Rattus norvegicus, UniProt P24388); experiment: Radioligand binding assay (charcoal precipitation, 3H-rUcn) for affinity to rCRFBP; conditions: for Ki: mean ± S.E.M. of three independent experiments in duplicate, 3H-rUcn radioligand, Cheng-Prusoff, read-out: Inhibition constants (Kl)
T1 construct: made in house; host or cells: HEK 293 cells, stably transfected (pcDNA3); serum-free conditioned medium used directly
T1 sequence (P24388 25-322): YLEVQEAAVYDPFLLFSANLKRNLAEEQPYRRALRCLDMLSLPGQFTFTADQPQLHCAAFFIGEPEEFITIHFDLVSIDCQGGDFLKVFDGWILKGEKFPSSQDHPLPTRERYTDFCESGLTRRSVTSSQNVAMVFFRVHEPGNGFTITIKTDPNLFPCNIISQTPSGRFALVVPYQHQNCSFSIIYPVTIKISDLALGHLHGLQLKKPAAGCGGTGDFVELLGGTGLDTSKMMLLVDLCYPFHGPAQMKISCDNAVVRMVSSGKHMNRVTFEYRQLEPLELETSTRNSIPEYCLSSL
Protocol: The peptides were tested for their affinity to rCRFBP on the basis of a charcoal precipitation assay utilizing tritiated Ucn as radioligand (21). […] Siliconized microreaction vials (Sigma, Deisenhofen, Germany) were used to prevent binding of peptides to plastic surfaces. Competition binding experiments were performed by employing 0 to maximally 3 μM unlabeled competitor. The applied concentration range depended on the expected order of magnitude of ligand affinity. After 2 hours of incubation at room temperature, unbound ligand was precipitated by the addition of 100 μl precipitation buffer (binding buffer+10% w/v activated charcoal+2% BSA). The suspension was mixed vigorously and the adsorption was allowed to proceed for 2 min at room temperature. After centrifugation for 2 min at 12000×g, 200 μl supernatant was removed, mixed with 2 ml Ecolume liquid scintillation cocktail (ICN Biomedicals, Irvine, Calif.), and counted for 3 min in a Wallac 1209 Rackbeta liquid scintillation counter (Wallac, Turku, Finland). All assays were performed in duplicate and repeated at least three times. Binding data were analyzed using the Prism computer program (GraphPad Software, San Diego, Calif.).

rCRFBP [2] = target: T1, rCRFBP; experiment: Photoaffinity labeling of rCRFBP (photoadduct formation); assay type: biochemical; conditions: for Photoadduct yield determined by immunoblotting: comparison of photoprobes (FIG. 6)
Protocol: 1 nM CRFBP was incubated with a 100 fold molar excess of photoactivatable ligand for 1 hour at room temperature. […] The irradiation was carried out with UV-light of wavelenghts greater than 300 nm in an ice bath.
rCRFBP (approximate final concentration 10 nM) was incubated with 100 nM of the photoactivatable peptide according to the conditions of the radioligand binding assay. Medium from stably transfected HEK 293 cells was directly used as source for rCRFBP. Irradiation of the benzophenone photoprobes was carried out at 0° C. with a self-constructed photoreaction device incorporating a 400 W halogen metal vapor lamp (Ultratech, Osram, Germany). This lamp provides a wide spectrum of emission at wavelenghts above 250 nm with a maximum at 370 nm which is consistent with the activation wavelenght (350-360 nm) for benzophenone derivatives (13). Protein-damaging wavelenghts below 300 nm were avoided by the use of a filter screen consisting of the optical glass type B 270 (Schoft, Mainz, Germany). The aryldiazirine photoprobe was irradiated as described (14) using a commercially available stratalinker device.
Unless otherwise stated, activation was carried out for 30 min at 0° C. with an Ultratech 400 W halogen metal vapor lamp (Osram). Protein-damaging wavelenghts below 300 nm were filtered with a B270 glass screen (Schott). Unlabeled rCRFBP and the photoadduct were co-purified by adsorption to a nickel-chelate matrix under denaturing conditions. The eluted fraction was analyzed by SDS PAGE (45) (9% polyacrylamide gels) and by reversed-phase HPLC coupled on-line to mass spectrometry (HPLC-MS) on a Vydac C4 column (0.3×150 mm; LC Packings).

rCRFBP [3] = target: T1, rCRFBP; experiment: Scintillation proximity assay with [125I-Tyr0]h/rCRF as radioligand, binding to rCRFBP; conditions: for IC50: Example 8, 95% CI given alongside, read-out: IC50 (affinity to rCRFBP)
Description: Recombinant rCRFBP containing a C-terminal His-tag was produced in human embryonic kidney (HEK) 293 cells under serum-free conditions (45).

CRFBP = target: T2, CRFBP (Rattus norvegicus, UniProt P24388); conditions: relative to Svg; cited from earlier work
T2 sequence (P24388 25-322): T1 sequence (P24388 25-322)

[4] = photoprobes 100 nM, competitor 1 μM (FIG. 12a)
[5] = photoprobe pBB-rUcn, competitor in ten-fold excess (FIG. 5)

Molecule: CC[C@H](C)[C@H](NC(=O)[C@H](CO)NC(=O)[C@H](CC(C)C)NC(=O)[C@@H]1CCCN1C(=O)[C@@H]1CCCN1C(=O)[C@H](CC(=O)O)NC(=O)[C@H](CC(=O)O)NC(=O)c1ccc(C(=O)c2ccccc2)cc1)C(=O)N[C@@H](CC(=O)O)C(=O)N[C@@H](CC(C)C)C(=O)N[C@H](C(=O)N[C@@H](Cc1ccccc1)C(=O)N[C@@H](Cc1c[nH]cn1)C(=O)N[C@@H](CC(C)C)C(=O)N[C@@H](CC(C)C)C(=O)N[C@@H](CCCNC(=N)N)C(=O)N[C@H](C(=O)N[C@@H](CC(C)C)C(=O)N[C@@H](CC(C)C)C(=O)N[C@@H](CCC(=O)O)C(=O)N[C@@H](CC(C)C)C(=O)N[C@@H](C)C(=O)N[C@@H](CCCNC(=N)N)C(=O)N[C@H](C(=O)N[C@@H](CCC(N)=O)C(=O)N[C@@H](CO)C(=O)N[C@@H](CCC(N)=O)C(=O)N[C@@H](CCCNC(=N)N)C(=O)N[C@@H](CCC(=O)O)C(=O)N[C@@H](CCCNC(=N)N)C(=O)N[C@@H](C)C(=O)N[C@@H](CCC(=O)O)C(=O)N[C@@H](CCC(N)=O)C(=O)N[C@@H](CC(N)=O)C(=O)N[C@@H](CCCNC(=N)N)C(=O)N[C@H](C(=O)N[C@H](C(=O)N[C@@H](Cc1ccccc1)C(=O)N[C@@H](CC(=O)O)C(=O)N[C@@H](CO)C(=O)N[C@H](C(N)=O)C(C)C)[C@@H](C)CC)[C@@H](C)CC)[C@@H](C)O)[C@@H](C)O)[C@@H](C)O [Compound 2, pBB-rUcn]
Ki (rCRFBP [1]): < 1 nM and 0.99 nM | Photoadduct yield by integration of the UV trace (rCRFBP [2]; HPLC of affinity purified photoreaction products (FIG. 8)): 60% | Maximal photoadduct yield (rCRFBP [2]; Western blot densitometry, 30 min irradiation with B 270 filter screen (FIG. 4C)): up to 50% | Photoadduct yield determined by immunoblotting (rCRFBP [2]): 50% | Photoadduct yield by SDS PAGE silver staining (rCRFBP [2]; preparative scale, nickel-affinity purified (FIG. 7)): 50%

Molecule: CC[C@H](C)[C@H](NC(=O)[C@H](CO)NC(=O)[C@H](CC(C)C)NC(=O)[C@@H]1CCCN1C(=O)[C@@H]1CCCN1C(=O)[C@H](CC(=O)O)NC(=O)[C@@H](N)CC(=O)O)C(=O)N[C@@H](CC(=O)O)C(=O)N[C@@H](CC(C)C)C(=O)N[C@H](C(=O)N[C@@H](Cc1ccc(C(=O)c2ccccc2)cc1)C(=O)N[C@@H](Cc1c[nH]cn1)C(=O)N[C@@H](CC(C)C)C(=O)N[C@@H](CC(C)C)C(=O)N[C@@H](CCCNC(=N)N)C(=O)N[C@H](C(=O)N[C@@H](CC(C)C)C(=O)N[C@@H](CC(C)C)C(=O)N[C@@H](CCC(=O)O)C(=O)N[C@@H](CC(C)C)C(=O)N[C@@H](C)C(=O)N[C@@H](CCCNC(=N)N)C(=O)N[C@H](C(=O)N[C@@H](CCC(N)=O)C(=O)N[C@@H](CO)C(=O)N[C@@H](CCC(N)=O)C(=O)N[C@@H](CCCNC(=N)N)C(=O)N[C@@H](CCC(=O)O)C(=O)N[C@@H](CCCNC(=N)N)C(=O)N[C@@H](C)C(=O)N[C@@H](CCC(=O)O)C(=O)N[C@@H](CCC(N)=O)C(=O)N[C@@H](CC(N)=O)C(=O)N[C@@H](CCCNC(=N)N)C(=O)N[C@H](C(=O)N[C@H](C(=O)N[C@@H](Cc1ccccc1)C(=O)N[C@@H](CC(=O)O)C(=O)N[C@@H](CO)C(=O)N[C@H](C(N)=O)C(C)C)[C@@H](C)CC)[C@@H](C)CC)[C@@H](C)O)[C@@H](C)O)[C@@H](C)O [Compound 6, pBF^11-rUcn] (H-DDPPLSIDLT[Bpa]HLLRTLLELARTQSQRERAEQNRIIFDSV-NH2; N-terminus assumed)
Ki (rCRFBP [1]): 400 ± 35 nM | Decrease of affinity to CRFBP relative to unmodified rUcn (rCRFBP [1]; modification within the central part of the peptide): three orders of magnitude

Molecule: CC[C@H](C)[C@H](NC(=O)[C@H](CO)NC(=O)[C@H](CC(C)C)NC(=O)c1ccc(C(=O)c2ccccc2)cc1)C(=O)N[C@@H](CC(=O)O)C(=O)N[C@@H](CC(C)C)C(=O)N[C@H](C(=O)N[C@@H](Cc1ccccc1)C(=O)N[C@@H](Cc1c[nH]cn1)C(=O)N[C@@H](CC(C)C)C(=O)N[C@@H](CC(C)C)C(=O)N[C@@H](CCCNC(=N)N)C(=O)N[C@H](C(=O)N[C@@H](CC(C)C)C(=O)N[C@@H](CC(C)C)C(=O)N[C@@H](CCC(=O)O)C(=O)N[C@@H](CC(C)C)C(=O)N[C@@H](C)C(=O)N[C@@H](CCCNC(=N)N)C(=O)N[C@H](C(=O)N[C@@H](CCC(N)=O)C(=O)N[C@@H](CO)C(=O)N[C@@H](CCC(N)=O)C(=O)N[C@@H](CCCNC(=N)N)C(=O)N[C@@H](CCC(=O)O)C(=O)N[C@@H](CCCNC(=N)N)C(=O)N[C@@H](C)C(=O)N[C@@H](CCC(=O)O)C(=O)N[C@@H](CCC(N)=O)C(=O)O)[C@@H](C)O)[C@@H](C)O)[C@@H](C)O [Compound 8, pBB-rUcn^5-32] ({Benzoyl(4-benzoyl)}-LSIDLTFHLLRTLLELARTQSQRERAEQ-OH)
Ki (rCRFBP [1]): 37 ± 3.5 nM

Molecule: CC[C@H](C)[C@H](N)C(=O)N[C@@H](CO)C(=O)N[C@@H](CC(C)C)C(=O)N[C@@H](CC(=O)O)C(=O)N[C@@H](CC(C)C)C(=O)N[C@H](C(=O)N[C@@H](Cc1ccccc1)C(=O)N[C@@H](Cc1c[nH]cn1)C(=O)N[C@@H](CC(C)C)C(=O)N[C@@H](CC(C)C)C(=O)N[C@@H](CCCNC(=N)N)C(=O)N[C@@H](CCC(=O)O)C(=O)N[C@H](C(=O)N[C@@H](CC(C)C)C(=O)N[C@@H](CCC(=O)O)C(=O)N[C@@H](CCSC)C(=O)N[C@@H](C)C(=O)N[C@@H](CCCNC(=N)N)C(=O)N[C@@H](C)C(=O)N[C@@H](CCC(=O)O)C(=O)N[C@@H](CCC(N)=O)C(=O)N[C@@H](CC(C)C)C(=O)N[C@@H](C)C(=O)N[C@@H](CCC(N)=O)C(=O)N[C@@H](CCC(N)=O)C(=O)N[C@@H](C)C(=O)N[C@@H](Cc1ccc(C(=O)c2ccccc2)cc1)C(=O)N[C@@H](CO)C(=O)O)C(C)C)[C@@H](C)O [Compound 14, [pBPhe^32]h/rCRF^6-33] (H-ISLDLTFHLLREVLEMARAEQLAQQA[Bpa]S-OH; N-terminus assumed)
IC50 (rCRFBP [3]): 2.1 nM

Molecule: CC[C@H](C)[C@H](NC(=O)c1ccc(C(=O)c2ccccc2)cc1)C(=O)N[C@@H](CO)C(=O)N[C@@H](CC(C)C)C(=O)N[C@@H](CC(=O)O)C(=O)N[C@@H](CC(C)C)C(=O)N[C@H](C(=O)N[C@@H](Cc1ccccc1)C(=O)N[C@@H](Cc1c[nH]cn1)C(=O)N[C@@H](CC(C)C)C(=O)N[C@@H](CC(C)C)C(=O)N[C@@H](CCCNC(=N)N)C(=O)N[C@@H](CCC(=O)O)C(=O)N[C@H](C(=O)N[C@@H](CC(C)C)C(=O)N[C@@H](CCC(=O)O)C(=O)N[C@@H](CCSC)C(=O)N[C@@H](C)C(=O)N[C@@H](CCCNC(=N)N)C(=O)N[C@@H](C)C(=O)N[C@@H](CCC(=O)O)C(=O)N[C@@H](CCC(N)=O)C(=O)N[C@@H](CC(C)C)C(=O)N[C@@H](C)C(=O)N[C@@H](CCC(N)=O)C(=O)N[C@@H](CCC(N)=O)C(=O)N[C@@H](C)C(=O)N[C@@H](Cc1ccc(C(=O)c2ccccc2)cc1)C(=O)N[C@@H](CO)C(=O)O)C(C)C)[C@@H](C)O [Compound 15, [pBPhe^32] pBB-h/rCRF^6-33] ({Benzoyl(4-benzoyl)}-ISLDLTFHLLREVLEMARAEQLAQQA[Bpa]S-OH)
IC50 (rCRFBP [3]): 14 nM | Decrease of affinity compared to h/rCRF^6-33 (rCRFBP [3]; bifunctional photoprobe): decreased by a factor of seven

Suppression of photoadduct formation by competitor (rCRFBP [2]; [4]): completely suppressed
Molecule: H-ISLDLTFHLLREVLEMARAEQLAQQAHS-OH [Compound 9, h/rCRF^6-33, reference compound]

Ki (rCRFBP [1]): 1.1 ± 0.06 nM
Molecule: LSIDLTFHLLRTLLELARTQSQRERAEQ-OH [Compound 7, rUcn^5-32, reference compound]

Molecule: [Ala^21]Svg
Increase of affinity to CRFBP by replacement of Glu^21 in Svg by Ala (CRFBP): two orders of magnitude

Suppression of photoadduct formation by competitor (rCRFBP [2]; [5]): not | Suppression of photoadduct formation by competitor (rCRFBP [2]; [4]): not
Molecule: ovine CRF [oCRF, reference compound]

Molecule: pBB-h/rCRF [Compound 4]
Photoadduct yield determined by immunoblotting (rCRFBP [2]): 50%

Molecule: pBB-h/rCRF^6-33 [Compound 10]
Photoadduct yield at different time points of irradiation (rCRFBP [2]; immunodetection, densitometry (FIG. 12c)): ≤ 65%

Suppression of photoadduct formation by competitor (rCRFBP [2]; [5]): suppressed
Molecule: rUcn [Compound 1, reference compound]
